Source: the NIST ThermoML archive (doi:10.1016/j.jct.2008.02.020)

Details: Liquid, Buoyancy - hydrostatic balance with magnetic suspension - one sinker

Cc1ccc(Cl)cc1Cl [1,3-dichloro-4-methylbenzene]
Details | mass density [kg/m3]
263.15 K, 97.86 kPa | 1280.75
263.15 K, 1123.9 kPa | 1281.41
263.15 K, 2150.1 kPa | 1282.08
263.15 K, 3971.8 kPa | 1283.26
263.15 K, 6167.5 kPa | 1284.65
263.15 K, 7898.5 kPa | 1285.75
263.15 K, 9974.7 kPa | 1287.06
273.15 K, 101.87 kPa | 1270.26
273.15 K, 1168.7 kPa | 1270.98
273.15 K, 2038.5 kPa | 1271.57
273.15 K, 4184.1 kPa | 1273.02
273.15 K, 5901.9 kPa | 1274.17
273.15 K, 7917 kPa | 1275.5
273.15 K, 10080 kPa | 1276.92
273.15 K, 11859 kPa | 1278.07
273.15 K, 14024 kPa | 1279.46
273.15 K, 16108 kPa | 1280.79
273.15 K, 17842 kPa | 1281.88
273.15 K, 20076 kPa | 1283.28
273.15 K, 22132 kPa | 1284.55
273.15 K, 24150 kPa | 1285.79
273.15 K, 26076 kPa | 1286.95
273.15 K, 27913 kPa | 1288.06
273.15 K, 29994 kPa | 1289.3
293.15 K, 97.54 kPa | 1249.31
293.16 K, 1126.7 kPa | 1250.08
293.17 K, 1886.8 kPa | 1250.65
293.18 K, 4191.9 kPa | 1252.36
293.19 K, 6062.4 kPa | 1253.73
293.2 K, 7970.1 kPa | 1255.11
293.21 K, 10165 kPa | 1256.68
293.22 K, 12144 kPa | 1258.09
293.23 K, 14101 kPa | 1259.46
293.24 K, 16101 kPa | 1260.85
293.25 K, 18110 kPa | 1262.23
293.26 K, 20077 kPa | 1263.55
293.27 K, 22136 kPa | 1264.94
293.28 K, 24103 kPa | 1266.25
293.29 K, 25962 kPa | 1267.48
293.3 K, 27896 kPa | 1268.74
293.31 K, 29829 kPa | 1270
313.15 K, 107.85 kPa | 1228.39
313.15 K, 1095.7 kPa | 1229.21
313.15 K, 2082.7 kPa | 1230.02
313.15 K, 4107.2 kPa | 1231.67
313.15 K, 5854.6 kPa | 1233.08
313.15 K, 8123.1 kPa | 1234.89
313.15 K, 10162 kPa | 1236.49
313.15 K, 12124 kPa | 1238.01
313.15 K, 13892 kPa | 1239.36
313.15 K, 16106 kPa | 1241.04
313.15 K, 18086 kPa | 1242.52
313.15 K, 20144 kPa | 1244.04
313.15 K, 22020 kPa | 1245.42
313.15 K, 24014 kPa | 1246.86
313.15 K, 25938 kPa | 1248.23
313.15 K, 27776 kPa | 1249.54
313.15 K, 29828 kPa | 1250.98
333.15 K, 101.71 kPa | 1207.38
333.15 K, 1081.7 kPa | 1208.28
333.15 K, 1877.8 kPa | 1209
333.15 K, 3933.1 kPa | 1210.85
333.15 K, 5993.1 kPa | 1212.68
333.15 K, 8164.3 kPa | 1214.58
333.15 K, 10140 kPa | 1216.29
333.15 K, 12129 kPa | 1217.98
333.15 K, 14157 kPa | 1219.68
333.15 K, 16129 kPa | 1221.31
333.15 K, 18148 kPa | 1222.96
333.15 K, 20046 kPa | 1224.49
333.15 K, 22094 kPa | 1226.12
333.15 K, 24026 kPa | 1227.64
333.15 K, 25826 kPa | 1229.04
333.15 K, 27856 kPa | 1230.61
333.15 K, 29702 kPa | 1232.01
353.15 K, 101.05 kPa | 1186.2
353.15 K, 1224 kPa | 1187.34
353.15 K, 2054.2 kPa | 1188.18
353.15 K, 4178 kPa | 1190.3
353.15 K, 6020.6 kPa | 1192.11
353.15 K, 8131.5 kPa | 1194.14
353.15 K, 10113 kPa | 1196.02
353.15 K, 12081 kPa | 1197.87
353.15 K, 14118 kPa | 1199.74
353.15 K, 16085 kPa | 1201.53
353.15 K, 18058 kPa | 1203.29
353.15 K, 19980 kPa | 1204.98
353.15 K, 22046 kPa | 1206.78
353.15 K, 24056 kPa | 1208.5
353.15 K, 26025 kPa | 1210.17
353.15 K, 27872 kPa | 1211.71
353.15 K, 29804 kPa | 1213.32
373.15 K, 99.43 kPa | 1164.78
373.15 K, 1084.4 kPa | 1165.89
373.15 K, 1956.5 kPa | 1166.87
373.15 K, 4135.4 kPa | 1169.29
373.15 K, 5954.6 kPa | 1171.27
373.15 K, 7981.3 kPa | 1173.43
373.15 K, 10128 kPa | 1175.67
373.15 K, 11936 kPa | 1177.54
373.15 K, 14002 kPa | 1179.62
373.15 K, 15987 kPa | 1181.6
373.15 K, 18116 kPa | 1183.68
373.15 K, 19990 kPa | 1185.5
373.15 K, 22002 kPa | 1187.4
373.15 K, 23973 kPa | 1189.24
373.15 K, 26011 kPa | 1191.11
373.15 K, 28050 kPa | 1192.96
373.15 K, 29922 kPa | 1194.64
393.15 K, 100.49 kPa | 1143.03
393.15 K, 1179.5 kPa | 1144.4
393.15 K, 1991.5 kPa | 1145.42
393.15 K, 3926.6 kPa | 1147.8
393.15 K, 5963.8 kPa | 1150.27
393.15 K, 7963.7 kPa | 1152.64
393.15 K, 10152 kPa | 1155.17
393.15 K, 12148 kPa | 1157.43
393.15 K, 14137 kPa | 1159.65
393.15 K, 16116 kPa | 1161.81
393.15 K, 17917 kPa | 1163.75
393.15 K, 20141 kPa | 1166.09
393.15 K, 22096 kPa | 1168.12
393.15 K, 24174 kPa | 1170.23
393.15 K, 26160 kPa | 1172.22
393.15 K, 27968 kPa | 1174
393.15 K, 29927 kPa | 1175.92
413.15 K, 100.59 kPa | 1120.92
413.15 K, 1151.6 kPa | 1122.41
413.15 K, 2145.3 kPa | 1123.81
413.15 K, 3981.3 kPa | 1126.35
413.15 K, 6146.6 kPa | 1129.27
413.15 K, 8164.1 kPa | 1131.92
413.15 K, 10060 kPa | 1134.35
413.15 K, 11927 kPa | 1136.7
413.15 K, 14145 kPa | 1139.43
413.15 K, 16150 kPa | 1141.84
413.15 K, 18124 kPa | 1144.17
413.15 K, 20124 kPa | 1146.49
413.15 K, 22139 kPa | 1148.77
413.15 K, 24073 kPa | 1150.92
413.15 K, 26091 kPa | 1153.13
413.15 K, 29979 kPa | 1157.28
433.15 K, 95.11 kPa | 1098.16
433.15 K, 1136.7 kPa | 1099.85
433.15 K, 2147.7 kPa | 1101.45
433.15 K, 3917.8 kPa | 1104.21
433.15 K, 6150.5 kPa | 1107.59
433.15 K, 8148.5 kPa | 1110.53
433.15 K, 10046 kPa | 1113.26
433.15 K, 12142 kPa | 1116.17
433.15 K, 14151 kPa | 1118.91
433.15 K, 16187 kPa | 1121.62
433.15 K, 18165 kPa | 1124.19
433.15 K, 20168 kPa | 1126.73
433.15 K, 22138 kPa | 1129.18
433.15 K, 24093 kPa | 1131.56
433.15 K, 26057 kPa | 1133.91
433.15 K, 28003 kPa | 1136.2
433.15 K, 29939 kPa | 1138.43
453.15 K, 1198.5 kPa | 1076.81
453.15 K, 2151.7 kPa | 1078.53
453.15 K, 4164.4 kPa | 1082.08
453.15 K, 6169.6 kPa | 1085.47
453.15 K, 8024.4 kPa | 1088.53
453.15 K, 10086 kPa | 1091.85
453.15 K, 12119 kPa | 1094.99
453.15 K, 14144 kPa | 1098.05
453.15 K, 16087 kPa | 1100.89
453.15 K, 19984 kPa | 1106.47
453.15 K, 22044 kPa | 1109.28
453.15 K, 24087 kPa | 1112.01
453.15 K, 26125 kPa | 1114.68
453.15 K, 28000 kPa | 1117.08
453.15 K, 29897 kPa | 1119.49
473.15 K, 1132.5 kPa | 1052.66
473.15 K, 2054.3 kPa | 1054.57
473.15 K, 4181.9 kPa | 1058.81
473.15 K, 5970.9 kPa | 1062.27
473.15 K, 8153.5 kPa | 1066.34
473.15 K, 10138 kPa | 1069.91
473.15 K, 12109 kPa | 1073.33
473.15 K, 14125 kPa | 1073.33
473.15 K, 16133 kPa | 1080.01
473.15 K, 18132 kPa | 1083.19
473.15 K, 20147 kPa | 1086.3
473.15 K, 22083 kPa | 1089.22
473.15 K, 24078 kPa | 1092.15
473.15 K, 26043 kPa | 1094.96
473.15 K, 27886 kPa | 1097.55
473.15 K, 29893 kPa | 1100.31
